Earlier results in US20090017120A1, “Phase stable lecithin organogel composition” (Humco Holding Group, Inc., priority 2007, published 2009).

Details: 20% wt/vol pluronic gels, pH 7, 20° C.

In the case of COc1ccc2c(c1)c(CC(=O)O)c(C)n2C(=O)c1ccc(Cl)cc1 [indomethacin], the “time to 10% indomethacin degradation” value is given as 2.7 years.
